Assay results as given in PMC2932887 (Journal of medicinal chemistry, 2010).
Where two headings read alike, the source gives them in different places.

Key:
recombinant rat NAAA [1] = target: T1, recombinant rat NAAA (Rattus norvegicus, UniProt Q5KTC7); assay: NAAA assay: inhibition of heptadecenoylethanolamide hydrolysis; assay type: biochemical; conditions: for NAAA inhibitory activity (in words): recombinant rat NAAA
T1 sequence (Q5KTC7 131-362 limits assumed): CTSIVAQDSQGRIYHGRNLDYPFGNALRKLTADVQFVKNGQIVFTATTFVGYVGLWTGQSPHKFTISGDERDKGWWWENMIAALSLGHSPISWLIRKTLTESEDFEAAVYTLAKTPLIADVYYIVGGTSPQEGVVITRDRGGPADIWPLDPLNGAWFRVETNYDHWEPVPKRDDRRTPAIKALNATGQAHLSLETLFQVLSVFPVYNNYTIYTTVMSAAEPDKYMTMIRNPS
T1 sequence (Q5KTC7 34-130 partner limits assumed): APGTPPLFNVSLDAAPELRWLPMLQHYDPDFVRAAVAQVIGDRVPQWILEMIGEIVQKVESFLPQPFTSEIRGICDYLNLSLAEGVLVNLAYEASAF

[2] = target: T2, Recombinant NAAA expressed in HEK-293 Cells (Rattus norvegicus, UniProt Q5KTC7); assay: Michaelis-Menten analysis of NAAA in presence of inhibitor; assay type: biochemical
T2 sequence (Q5KTC7 131-362 limits assumed): T1 sequence (Q5KTC7 131-362 limits assumed)
T2 sequence (Q5KTC7 34-130 partner limits assumed): T1 sequence (Q5KTC7 34-130 partner limits assumed)

recombinant rat NAAA [3] = target: T1, recombinant rat NAAA; conditions: intracellular NAAA activity; cited from earlier work
FAAH = conditions: cited from earlier work
monoacylglycerol lipase = conditions: cited from earlier work
[4] = system: diacylglycerol lipase type-α; conditions: cited from earlier work

NAAA inhibitory activity (in words) (recombinant rat NAAA [1])	SMILES	also measured
inactivity	O=C(N[C@H]1CCOC1=O)c1ccc2ccccc2c1 [11j, (S)-N-(2-Oxotetrahydrofuran-3-yl)-2-naphthamide]	–
complete loss of activity	C[C@H]1OC(=O)[C@H]1NC(=O)CCc1ccccc1 [20a, (2R,3S)-N-(2-Methyl-4-oxo-3-oxetanyl)-3-phenylpropionamide]	–
entirely devoid of inhibitory activity	O=C(CCc1ccccc1)N[C@H]1CCOC1=O [11a, (S)-N-(2-Oxotetrahydrofuran-3-yl)-3-phenylpropionamide]	–

Second part, the molecule before the results:

SMILES	NAAA inhibitory activity (in words) (recombinant rat NAAA [1])	also measured
O=C(N[C@H]1COC1=O)c1ccc(-c2ccccc2)cc1 [7h, (S)-N-(2-Oxo-3-oxetanyl)biphenyl-4-carboxamide]	–	mechanism of NAAA inhibition (recombinant rat NAAA [1]; preincubation time-course, Michaelis-Menten analysis, overnight dialysis): rapid, noncompetitive and reversible; Vmax ([2]; 100 nM inhibitor): 10.8 ± 2.5 nmol/min/mg; Vmax ([2]; 200 nM inhibitor): 6.2 ± 0.2 nmol/min/mg
O=C(CCc1ccccc1)NC1CCC1=O (centres unmarked) [compound 15, N-(2-Oxocyclobutyl)-3-phenylpropionamide]	entirely devoid of inhibitory activity	–
O=C(CCc1ccccc1)N[C@H]1COC1=O [7a, (S)-N-(2-Oxo-3-oxetanyl)-3-phenylpropionamide]	–	mechanism of NAAA inhibition (recombinant rat NAAA [3]): non-competitive; inhibition of FAAH (FAAH): no inhibition; inhibition of monoacylglycerol lipase (monoacylglycerol lipase): no inhibition; inhibition of diacylglycerol lipase type-α [4]: no inhibition
O=C(CCc1ccccc1)NC1CCC1 [compound 12, N-Cyclobutyl-3-phenylpropionamide]	entirely devoid of inhibitory activity	–
O=C(CCc1ccccc1)N[C@@H](CO)C(=O)O [compound 10, (S)-3-Hydroxy-2-(3-Phenylpropionylamino)propionic Acid]	entirely devoid of inhibitory activity	–
O=C1OCC1CCCCc1ccccc1 (racemic) [compound 23, rac-3-(4-Phenylbutyl)oxetan-2-one]	low potency	–
